These are literature values, as cited in patent US20240299410A1 (Woolsey Pharmaceuticals, Inc., priority 2022, published 2024).

For data set [1] the following is noted: oral fasudil in drinking water; cited from earlier work.
The next data set has as its system SOD mice. Conditions: cited from earlier work; for motor function: presymptomatic SOD mice, 30 mg/kg in drinking water (Günther et al. 2014).
The next data set has as its system human ALS patients. Conditions: three ALS patients, 30 mg intravenously twice daily over 20 consecutive working days; cited from earlier work.
The conditions of data set [2]: humans, intravenous administration, after an hour; cited from earlier work.
The mark [3] stands for this setting: male SOD mice, both 30 mg/kg and 100 mg/kg (Takata 2013).

Structures can show the parent of a compound that is named as a salt. Where two headings read alike, the source gives them in different places.

Regarding `O=S(=O)(c1cccc2c(O)nccc12)N1CCCNCC1` [M3, hydroxyfasudil], the “M3 in male rats relative to female rats” value in data set [1] is given as ~7 fold.
With `C[C@@H](N)[C@H]1CC[C@H](C(=O)Nc2ccncc2)CC1` [Y-27632], the motor function result is on record as “did not significantly improve motor function” with SOD mice (female) and “improved motor function” in the data set with SOD mice (male).
With `O=S(=O)(c1cccc2cnccc12)N1CCCNCC1` [fasudil, Hexahydro-1-(5-isoquinolinesulfonyl)-1H-1,4-diazepine monohydrochloride hemihydrate], the “outcome of compassionate use treatment” value in the data set on human ALS patients is on record as “no conclusive results beyond safety”. In addition, in data set [2], the “mixture of fasudil and M3 in CSF” value is given as 50/50. For the same molecule, the motor behavior entry in the data set with SOD mice (male SOD mice, 30 mg/kg and 100 mg/kg beginning at disease onset (Günther 2017)) is “significantly improved motor behavior”. Also, in the data set with SOD mice (setting [3]), the survival time result is “prolonged survival time” and the “symptom onset (motor performance, motor neuron loss)” value is “delayed symptom onset”. Further, in the data set with SOD mice (presymptomatic female SOD mice, oral (Tönges et al. 2013)), the “prolonging disease duration, 100 mg/kg versus 30 mg/kg” value was “not as effective at prolonging disease duration as the lower dose”.
